Where two headings read alike, the source gives them in different places.
Key:
NCI-H522 = assay: NCI 60 cell line panel; assay type: cell-based; conditions: Homo sapiens, NSCLC
COLO 205 = assay: NCI 60 cell line panel; assay type: cell-based; conditions: Homo sapiens, Colon Cancer
786-0 = assay: NCI 60 cell line panel; assay type: cell-based; conditions: Homo sapiens
MDA-MB-435 = assay: NCI 60 cell line panel; assay type: cell-based; conditions: Homo sapiens, Melanoma
IGROV1 = assay: NCI 60 cell line panel; assay type: cell-based; conditions: Homo sapiens, IGROV-1, Ovarian cancer
HT29 = assay: NCI 60 cell line panel; assay type: cell-based; conditions: Homo sapiens, HT-29, Colon Cancer
SF-295 = assay: NCI 60 cell line panel; assay type: cell-based; conditions: Homo sapiens, CNS Cancer
MCF7 = assay: NCI 60 cell line panel; assay type: cell-based; conditions: Homo sapiens, Breast Cancer
MDA-MB-468 = assay: NCI 60 cell line panel; assay type: cell-based; conditions: Homo sapiens, Breast Cancer
SN 12C = assay: NCI 60 cell line panel; assay type: cell-based; conditions: Homo sapiens, SN12C, Renal Cancer
SNB-19 = assay: NCI 60 cell line panel; assay type: cell-based; conditions: Homo sapiens, CNS Cancer
HOP-92 = assay: NCI 60 cell line panel; assay type: cell-based; conditions: Homo sapiens, NSCLC
SR = assay: NCI 60 cell line panel; assay type: cell-based; conditions: Homo sapiens, Leukemia
HCT-116 = assay: NCI 60 cell line panel; assay type: cell-based; conditions: Homo sapiens, Colon Cancer
SK-OV-3 = assay: NCI 60 cell line panel; assay type: cell-based; conditions: Homo sapiens, Ovarian cancer
SF-268 = assay: NCI 60 cell line panel; assay type: cell-based; conditions: Homo sapiens, CNS Cancer
EGFR = EGFR (Homo sapiens (Human), UniProt P00533); assay: EGFR kinase inhibition, phosphotyrosine ELISA cytoblot; assay type: cell-based; conditions: A431 cells
Protocol: (§1) Cells used were tumor cell lines naturally expressing high levels of EGFR (A431), VEGFR-2 (U251), and PDGFR-β (SH-SYSY). […] The reaction was stopped and cells were permeabilized by quickly removing the media from the cells and adding ice-cold Tris-buffered saline (TBS) containing 0.05% Triton X-100, protease inhibitor cocktail and tyrosine phosphatase inhibitor cocktail. The TBS solution was then removed and cells fixed to the plate for 30 min at 60° C. and further incubation in 70% ethanol for an additional 30 min. Cells were further exposed to block (TBS with 1% BSA) for 1 h, washed, and then a horseradish peroxidase (HRP)-conjugated phosphotyrosine (PY) antibody was added overnight.

NCI/ADR-RES = assay: NCI 60 cell line panel; assay type: cell-based; conditions: Homo sapiens, Ovarian cancer
DU-145 = assay: NCI 60 cell line panel; assay type: cell-based; conditions: Homo sapiens, Prostate Cancer
PC-3 = assay: NCI 60 cell line panel; assay type: cell-based; conditions: Homo sapiens, Prostate Cancer
CCRF-CEM = assay: NCI 60 cell line panel; assay type: cell-based; conditions: Homo sapiens, Leukemia
HeLa cells = assay: Antiproliferative SRB assay; assay type: cell-based; conditions: Homo sapiens, HeLa, 48 h, read-out: IC50 ± SD in HeLa
SW-620 = assay: NCI 60 cell line panel; assay type: cell-based; conditions: Homo sapiens, Colon Cancer
MOLT-4 = assay: NCI 60 cell line panel; assay type: cell-based; conditions: Homo sapiens, Leukemia
[1] = tested on: M6/6 cells (SK-OV-3 expressing Pgp); assay: Antiproliferative SRB assay; conditions: for Rr value (relative resistance): M6/6 (Pgp) vs SKOV3
OVCAR-4 = assay: NCI 60 cell line panel; assay type: cell-based; conditions: Homo sapiens, Ovarian cancer
HOP-62 = assay: NCI 60 cell line panel; assay type: cell-based; conditions: Homo sapiens, NSCLC
RXF 393 = assay: NCI 60 cell line panel; assay type: cell-based; conditions: Homo sapiens, Renal Cancer
OVCAR-8 = assay: NCI 60 cell line panel; assay type: cell-based; conditions: Homo sapiens, Ovarian cancer
BT-549 = assay: NCI 60 cell line panel; assay type: cell-based; conditions: Homo sapiens
[2] = tested on: cellular microtubules in A-10 cells; assay: Microtubule depolymerization, indirect immunofluorescence; assay type: cell-based; conditions: for effect on cellular microtubules: in words; for EC50: Rattus norvegicus, A10, A-10 cells, 18 h, read-out: EC50 for MT depolymerization in A-10 cells
Protocol: Evaluation of microtubule inhibition was performed using previously described methods.^22 Indirect immunofluorescence was used to evaluate the effects of the compounds on cellular microtubules as described previously.^38 Briefly, A-10 cells were treated for 18 h with vehicle (DMSO) or a compound, and microtubule effects were evaluated microscopically using β-tubulin antibody. The EC50 was calculated from 3 independent experiments and expressed as the mean±SD.

VEGFR-2 = VEGFR-2 (Homo sapiens (Human), UniProt P35968); assay: VEGFR-2 kinase inhibition, phosphotyrosine ELISA cytoblot; assay type: cell-based; conditions: U251 cells, phosphotyrosine ELISA
Protocol: as §1

SK-MEL-2 = assay: NCI 60 cell line panel; assay type: cell-based; conditions: Homo sapiens
HCT-15 = assay: NCI 60 cell line panel; assay type: cell-based; conditions: Homo sapiens, Colon Cancer
NCI-H460 = assay: NCI 60 cell line panel; assay type: cell-based; conditions: Homo sapiens, NSCLC
SK-MEL-5 = assay: NCI 60 cell line panel; assay type: cell-based; conditions: Homo sapiens, Melanoma
SKOV3 cells = assay: Antiproliferative SRB assay; assay type: cell-based; conditions: Homo sapiens, SK-OV-3, 48 h, read-out: IC50 ± SD in SKOV3 cells
TK-10 = assay: NCI 60 cell line panel; assay type: cell-based; conditions: Homo sapiens, Renal Cancer
MDA-435 cells = assay: Antiproliferative SRB assay; assay type: cell-based; conditions: MDA435, 48 h, read-out: IC50 ± SD in MDA-435 cells
HS 578T = assay: NCI 60 cell line panel; assay type: cell-based; conditions: Homo sapiens, Breast Cancer
OVCAR-3 = assay: NCI 60 cell line panel; assay type: cell-based; conditions: Homo sapiens, Ovarian cancer
M14 = assay: NCI 60 cell line panel; assay type: cell-based; conditions: Homo sapiens, Melanoma
MDA-MB-231/ATCC = assay: NCI 60 cell line panel; assay type: cell-based; conditions: Homo sapiens, Breast Cancer
SF-539 = assay: NCI 60 cell line panel; assay type: cell-based; conditions: Homo sapiens, CNS Cancer
EKVX = assay: NCI 60 cell line panel; assay type: cell-based; conditions: Homo sapiens, NSCLC
KM12 = assay: NCI 60 cell line panel; assay type: cell-based; conditions: Homo sapiens, Colon Cancer
[3] = tested on: WTβ3 cells (HeLa overexpressing βIII tubulin); assay: Antiproliferative SRB assay; assay type: cell-based; conditions: for IC50: Homo sapiens, HeLa, SRB, 48 h, read-out: IC50 ± SD in WTβ3
ACHN = assay: NCI 60 cell line panel; assay type: cell-based; conditions: Homo sapiens, Renal Cancer
A431 cancer cells = assay: A431 cytotoxicity (cell proliferation); assay type: cell-based, human
UACC-62 = assay: NCI 60 cell line panel; assay type: cell-based; conditions: Homo sapiens, Melanoma
SNB-75 = assay: NCI 60 cell line panel; assay type: cell-based; conditions: Homo sapiens, CNS Cancer
OVCAR-5 = assay: NCI 60 cell line panel; assay type: cell-based; conditions: Homo sapiens, Ovarian cancer
U251 = assay: NCI 60 cell line panel; assay type: cell-based; conditions: Homo sapiens, U-251, CNS Cancer
CAKI-1 = assay: NCI 60 cell line panel; assay type: cell-based; conditions: Homo sapiens, Renal Cancer
HL-60(TB) = assay: NCI 60 cell line panel; assay type: cell-based; conditions: Homo sapiens, Leukemia
NCI-H23 = assay: NCI 60 cell line panel; assay type: cell-based; conditions: Homo sapiens, NSCLC
K-562 = assay: NCI 60 cell line panel; assay type: cell-based; conditions: Homo sapiens, K562, Leukemia
LOX IMVI = assay: NCI 60 cell line panel; assay type: cell-based; conditions: Homo sapiens, Melanoma
PDGFR-β = PDGFR-β (Homo sapiens (Human), UniProt P09619); assay: PDGFR-β kinase inhibition, phosphotyrosine ELISA cytoblot; assay type: cell-based; conditions: SH-SY5Y cells, phosphotyrosine ELISA
Protocol: as §1

[4] = tested on: chicken embryo chorioallantoic membrane; assay: Chorioallantoic membrane (CAM) assay of angiogenesis; conditions: Gallus gallus, 48 h, read-out: CAM angiogenesis inhibition

Chain of VEGFR-2 (P35968 20-1356): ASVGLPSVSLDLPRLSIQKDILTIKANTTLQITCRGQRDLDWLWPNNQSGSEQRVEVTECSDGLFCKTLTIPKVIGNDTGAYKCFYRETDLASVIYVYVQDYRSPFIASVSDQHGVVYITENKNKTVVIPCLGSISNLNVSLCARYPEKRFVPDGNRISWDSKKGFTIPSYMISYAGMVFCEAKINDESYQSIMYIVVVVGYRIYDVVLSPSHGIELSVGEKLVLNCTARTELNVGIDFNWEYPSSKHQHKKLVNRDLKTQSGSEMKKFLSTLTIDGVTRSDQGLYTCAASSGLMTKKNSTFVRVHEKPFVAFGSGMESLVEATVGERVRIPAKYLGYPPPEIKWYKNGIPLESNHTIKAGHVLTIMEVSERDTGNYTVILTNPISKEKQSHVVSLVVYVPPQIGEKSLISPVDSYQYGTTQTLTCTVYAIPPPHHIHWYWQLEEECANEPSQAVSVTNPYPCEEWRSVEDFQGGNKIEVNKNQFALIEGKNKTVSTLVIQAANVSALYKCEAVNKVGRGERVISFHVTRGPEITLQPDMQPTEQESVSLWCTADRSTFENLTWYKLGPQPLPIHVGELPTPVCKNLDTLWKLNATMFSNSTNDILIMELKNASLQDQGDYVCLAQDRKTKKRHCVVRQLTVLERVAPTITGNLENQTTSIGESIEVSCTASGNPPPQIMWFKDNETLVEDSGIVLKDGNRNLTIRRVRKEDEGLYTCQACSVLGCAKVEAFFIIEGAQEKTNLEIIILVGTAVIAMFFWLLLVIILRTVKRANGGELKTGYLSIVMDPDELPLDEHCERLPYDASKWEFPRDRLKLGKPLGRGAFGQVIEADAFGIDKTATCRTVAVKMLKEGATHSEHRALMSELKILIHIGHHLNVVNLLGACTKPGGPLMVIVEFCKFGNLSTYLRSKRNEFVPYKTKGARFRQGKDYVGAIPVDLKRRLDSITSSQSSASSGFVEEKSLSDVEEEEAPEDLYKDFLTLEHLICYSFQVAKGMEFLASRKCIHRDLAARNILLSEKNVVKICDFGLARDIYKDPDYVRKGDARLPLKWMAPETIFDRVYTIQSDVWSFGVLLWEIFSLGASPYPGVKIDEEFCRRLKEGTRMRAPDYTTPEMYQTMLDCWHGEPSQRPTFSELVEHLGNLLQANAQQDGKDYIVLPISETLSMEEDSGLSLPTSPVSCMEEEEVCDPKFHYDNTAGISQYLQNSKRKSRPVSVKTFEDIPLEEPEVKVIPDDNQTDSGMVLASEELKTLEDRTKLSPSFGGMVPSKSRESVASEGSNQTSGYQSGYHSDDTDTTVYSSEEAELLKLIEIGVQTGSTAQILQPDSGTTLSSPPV
Chain of EGFR (P00533 25-1210): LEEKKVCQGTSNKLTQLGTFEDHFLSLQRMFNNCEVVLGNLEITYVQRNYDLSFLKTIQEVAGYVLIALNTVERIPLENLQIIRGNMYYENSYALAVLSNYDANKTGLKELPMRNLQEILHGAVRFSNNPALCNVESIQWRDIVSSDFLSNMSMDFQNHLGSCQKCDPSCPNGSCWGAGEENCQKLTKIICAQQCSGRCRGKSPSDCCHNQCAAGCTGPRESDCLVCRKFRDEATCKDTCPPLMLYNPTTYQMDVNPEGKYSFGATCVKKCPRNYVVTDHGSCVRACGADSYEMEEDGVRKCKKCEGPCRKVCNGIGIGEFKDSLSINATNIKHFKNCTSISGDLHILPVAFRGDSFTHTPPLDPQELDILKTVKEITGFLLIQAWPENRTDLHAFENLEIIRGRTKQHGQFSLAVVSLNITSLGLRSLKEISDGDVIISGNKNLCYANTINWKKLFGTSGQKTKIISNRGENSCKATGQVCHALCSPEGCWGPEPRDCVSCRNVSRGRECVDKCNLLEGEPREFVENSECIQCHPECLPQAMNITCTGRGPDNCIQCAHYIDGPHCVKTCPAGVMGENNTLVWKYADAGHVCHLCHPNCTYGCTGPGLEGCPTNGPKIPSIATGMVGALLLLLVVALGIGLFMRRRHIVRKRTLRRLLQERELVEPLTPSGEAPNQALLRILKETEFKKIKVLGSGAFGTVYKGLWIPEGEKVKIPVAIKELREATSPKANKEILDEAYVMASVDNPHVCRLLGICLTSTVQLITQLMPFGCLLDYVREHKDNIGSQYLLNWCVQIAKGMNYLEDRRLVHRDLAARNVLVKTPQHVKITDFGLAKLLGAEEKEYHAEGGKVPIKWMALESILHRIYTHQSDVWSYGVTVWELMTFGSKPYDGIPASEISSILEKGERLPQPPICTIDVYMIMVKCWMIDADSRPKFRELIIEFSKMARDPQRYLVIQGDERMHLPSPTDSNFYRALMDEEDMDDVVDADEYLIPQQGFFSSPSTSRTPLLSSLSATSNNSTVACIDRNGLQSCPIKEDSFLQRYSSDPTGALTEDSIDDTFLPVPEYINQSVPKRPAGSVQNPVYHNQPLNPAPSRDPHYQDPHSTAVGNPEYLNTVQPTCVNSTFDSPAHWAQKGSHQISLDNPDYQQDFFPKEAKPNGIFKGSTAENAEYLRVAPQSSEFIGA
Chain of PDGFR-β (P09619 33-1106): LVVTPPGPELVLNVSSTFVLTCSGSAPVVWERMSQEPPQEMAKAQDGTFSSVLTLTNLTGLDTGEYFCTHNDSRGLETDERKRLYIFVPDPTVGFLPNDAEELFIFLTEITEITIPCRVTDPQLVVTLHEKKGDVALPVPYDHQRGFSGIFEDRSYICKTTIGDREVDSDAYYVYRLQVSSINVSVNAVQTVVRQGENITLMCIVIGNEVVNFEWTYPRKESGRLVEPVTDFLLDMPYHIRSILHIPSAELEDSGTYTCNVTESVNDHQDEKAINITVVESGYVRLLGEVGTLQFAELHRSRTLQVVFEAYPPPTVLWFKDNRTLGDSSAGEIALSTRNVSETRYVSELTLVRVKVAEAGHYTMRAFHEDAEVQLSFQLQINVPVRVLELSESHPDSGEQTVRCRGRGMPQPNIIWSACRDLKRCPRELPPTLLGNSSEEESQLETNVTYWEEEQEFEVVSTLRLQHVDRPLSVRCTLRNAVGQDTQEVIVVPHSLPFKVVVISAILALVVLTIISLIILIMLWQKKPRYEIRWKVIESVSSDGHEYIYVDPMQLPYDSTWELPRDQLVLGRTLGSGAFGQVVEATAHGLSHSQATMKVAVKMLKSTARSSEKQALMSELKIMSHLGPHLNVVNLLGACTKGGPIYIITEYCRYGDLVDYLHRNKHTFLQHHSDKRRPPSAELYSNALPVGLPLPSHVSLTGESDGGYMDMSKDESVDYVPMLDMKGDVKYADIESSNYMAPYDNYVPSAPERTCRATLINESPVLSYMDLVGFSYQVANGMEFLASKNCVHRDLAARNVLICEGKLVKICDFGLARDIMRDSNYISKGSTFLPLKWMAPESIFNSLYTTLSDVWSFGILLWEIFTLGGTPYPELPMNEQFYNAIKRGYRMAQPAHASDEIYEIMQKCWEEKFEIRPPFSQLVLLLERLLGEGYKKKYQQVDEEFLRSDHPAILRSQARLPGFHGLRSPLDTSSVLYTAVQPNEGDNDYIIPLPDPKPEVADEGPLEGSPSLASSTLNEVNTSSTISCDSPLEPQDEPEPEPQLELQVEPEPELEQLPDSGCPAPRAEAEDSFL

`Cc1nc(N(C)c2ccc3c(c2)CCO3)c2cc(C)oc2n1` [Compound 6, N-(2,3-dihydro-1-benzofuran-5-yl)-N,2,6-trimethylfuro[2,3-d]pyrimidin-4-amine] showed a GI50 (NCI-H522) of 12.9 nM, a GI50 (COLO 205) of 40.3 nM and a GI50 (786-0) of 80.4 nM. For the same compound, the GI50 (MDA-MB-435) was 14 nM, the GI50 (IGROV1) was 62.9 nM and the GI50 (HT29) was 32.4 nM. It also gave a GI50 (SF-295) of 30.5 nM, a GI50 (MCF7) of 40.2 nM and a GI50 (MDA-MB-468) of 22.1 nM. The GI50 (SN 12C) was 97.2 nM, the GI50 (SNB-19) was 56.5 nM and the GI50 (HOP-92) was 45.8 nM. For the same compound, the GI50 (SR) was 36.6 nM, the GI50 (HCT-116) was 45.1 nM and the GI50 (SK-OV-3) was 37.6 nM. It also gave a GI50 (SF-268) of 13.9 nM, an IC50 (EGFR) of 226 ± 50.2 nM and a GI50 (NCI/ADR-RES) of 26.5 nM. For the same compound, the GI50 (DU-145) was 44.1 nM, the GI50 (PC-3) was 52.2 nM and the GI50 (CCRF-CEM) was 58.1 nM. The IC50 (HeLa cells) was 105 ± 5.8 nM, the GI50 (SW-620) was 41.6 nM and the GI50 (MOLT-4) was 76.7 nM. For the same compound, the “Rr value (relative resistance)” value [1] was 1.3, the GI50 (OVCAR-4) was 83.4 nM and the GI50 (HOP-62) was 39.6 nM. It also gave a GI50 (RXF 393) of 21.2 nM, a GI50 (OVCAR-8) of 63 nM and a GI50 (BT-549) of 77.2 nM. For the same compound, the “effect on cellular microtubules” value [2] was “dose-dependent loss of cellular microtubules”, the IC50 (VEGFR-2) was 6.7 ± 0.81 nM and the GI50 (SK-MEL-2) was 26.4 nM. It also gave a GI50 (HCT-15) of 38.9 nM, a GI50 (NCI-H460) of 42 nM and a GI50 (SK-MEL-5) of 31.4 nM. The IC50 (SKOV3 cells) was 120 ± 5 nM, the GI50 (TK-10) was 50.2 nM and the IC50 (MDA-435 cells) was 96.2 ± 13 nM. It also gave a GI50 (HS 578T) of 31 nM, a GI50 (OVCAR-3) of 24.5 nM and a GI50 (M14) of 34.8 nM. For the same compound, the GI50 (MDA-MB-231/ATCC) was 148 nM, the GI50 (SF-539) was 31.6 nM and the GI50 (EKVX) was 70 nM. The GI50 (KM12) was 40.1 nM, the IC50 [3] was 94 ± 7 nM and the “Rr value (relative resistance)” value ([3]; WTβ3 vs HeLa) was 0.9. For the same compound, the GI50 (ACHN) was 64.2 nM, the IC50 (A431 cancer cells; Homo sapiens, A-431) was 38.3 ± 4.2 nM and the GI50 (UACC-62) was 61.3 nM. For the same compound, the GI50 (SNB-75) was 30.4 nM, the GI50 (OVCAR-5) was 262 nM and the GI50 (U251) was 39.7 nM. The GI50 (CAKI-1) was 40.1 nM, the GI50 (HL-60(TB)) was 27.6 nM and the GI50 (NCI-H23) was 43.9 nM. It also gave a GI50 (K-562) of 31.7 nM and a GI50 (LOX IMVI) of 45.6 nM.
For `COc1ccc2c(c1)CCN2c1nc(C)nc2oc(C)cc12` [Compound 8, 4-(5-methoxyindolin-1-yl)-2,6-dimethylfuro[2,3-d]pyrimidine], the IC50 (PDGFR-β) was 73.2 ± 4.9 nM, the IC50 (EGFR) was 103 ± 18.2 nM and the EC50 [2] was > 10000 nM. The “effect on cellular microtubules” value [2] was “no effect on cellular microtubules”, the IC50 (VEGFR-2) was 20.9 ± 3.7 nM and the IC50 (A431 cancer cells; Homo sapiens, A-431) was 42.2 ± 5 nM.
In the case of `COc1ccc2c(ccn2-c2nc(C)nc3oc(C)cc23)c1` [Compound 9, 4-(5-methoxy-1H-indol-1-yl)-2,6-dimethylfuro[2,3-d]pyrimidine], the IC50 [4] is reported as > 300000 nM, the EC50 [2] is reported as > 10000 nM and the IC50 (A431 cancer cells; Homo sapiens, A-431) is reported as > 300 nM.
`CCOc1ccc(N(C)c2nc(C)nc3oc(C)cc23)cc1` [Compound 11, N-(4-ethoxyphenyl)-N,2,6-trimethylfuro[2,3-d]pyrimidin-4-amine] was tested, and the IC50 [4] was 50100 ± 8200 nM, the EC50 [2] was > 10000 nM and the IC50 (A431 cancer cells; Homo sapiens, A-431) was 11.6 ± 2.1 nM.
In the case of `CCCOc1ccc(N(C)c2nc(C)nc3oc(C)cc23)cc1` [Compound 12, N-2,6-trimethyl-N-(4-propoxyphenyl)furo[2,3-d]pyrimidin-4-amine], the “Rr value (relative resistance)” value [1] is reported as 1.3, the IC50 ([1]; read-out: IC50 ± SD in M6/6 cells, SRB, 48 h) is reported as 30.8 ± 1.7 nM and the IC50 (A431 cancer cells) is reported as 92.9 ± 10.1 nM.
With `CC(=O)O[C@H]1C(=O)[C@@]2(C)[C@H]([C@H](OC(=O)c3ccccc3)[C@]3(O)C[C@H](OC(=O)[C@H](O)[C@@H](NC(=O)c4ccccc4)c4ccccc4)C(C)=C1C3(C)C)[C@]1(OC(C)=O)CO[C@@H]1C[C@@H]2O` [Paclitaxel, reference compound] the IC50 (SKOV3 cells) was 6.3 ± 0.4 nM, the IC50 (MDA-435 cells) was 3.3 ± 0.3 nM and the IC50 [3] was 32.9 ± 5.8 nM.
